# Values of other authors in patent publication US11246867B2, “Pharmaceutical composition comprising pimobendan” (Ceva Sante Animale, priority 2015, dated 2022).
# Conditions: pH 5
compound,measurement,value
"COc1ccc(-c2nc3ccc(C4=NNC(=O)CC4C)cc3[nH]2)cc1 (stereo not shown) [pimobendan, 4,5-dihydro-6-[2-(4-methoxyphenyl)-1H-benzimidazol-5-yl]-5-methyl-3(2H)-pyridazone]",solubility in water,about 1 mg/liter
